Patent US7795315B2, “N-(2-amino-phenyl)-amide derivatives” (Hoffman-La Roche Inc., priority 2008, dated 2010)

Tests used:
Assay type in all cases: cell-based
[1] = system: HCT-116 colon cancer cells; assay: Antiproliferative activity, growth inhibition (MTS/WST assay); conditions: Homo sapiens, 72 hour growth inhibition, read-out: GI50 HCT116
Procedure: The novel compounds of the present invention were tested for their ability to inhibit growth of various cancer cell lines (HeLa, MCF7, U2OS, HepG2, HL60, HCT-116) using in vitro growth inhibition assays described below.
Cells were seeded in 96-well culture plates (200 microliters/well at different seeding concentrations depending on cell type) and incubated overnight at 37 degrees Celsius in 5% CO2. After adding compound dilutions to the cells (DMSO concentration kept below 0.5%), the cells were incubated at 37 degrees Celsius in 5% CO2 for 72 hours. The effects on proliferation were determined by addition of MTS reagent (Promega) according to the manufacturer's instruction, followed by incubation for 2 hours at 37 degrees Celsius in 5% CO2, and finally recording the absorbance at 490 nm using an ELISA plate reader.
Similar to MTS assay except that the developer is the CCK-8 reagent (Dojindo) and the plate reader is set to 450 nm absorbance.
GI50 values against HCT-116 colon cancer cells for specific representative compounds can be found in Table 4.

[2] = system: p21 promoter-luciferase construct in HeLa cells; assay: p21 reporter gene induction; conditions: 3 micromolar, 15 hours, relative to SNDX-275
Procedure: (§1) The novel compounds of the present invention were tested for their ability to induce p21 gene expression using a reporter gene assay involving HeLa cells transfected with a p21 promoter-luciferase construct. The p21 promoter contained the Sp1/Sp3 binding site for HDAC but not the upstream p53 binding site. Briefly, the day before transfection, HeLa cells were seeded at 11,000 cells/well in a 96-well culture plate and incubated at 37 degrees Celsius in 5% CO2 overnight. For transfection, the medium was removed and replaced with 100 microliters/well transfection media previously prepared as follows: 5 microliters serum-free DMEM, 0.15 microliters Fugene 6 reagent, 40 ng p21-luc, 10 ng GFP were mixed gently and incubated at room temperature for 30 minutes; then 98 microliters DMEM (with 10% FBS, 1% penicillin and streptomycin) was added to the DNA:Fugene 6 reagent complex and mixed gently. After incubating the cells for 24 hours at 37 degrees Celsius in 5% CO2, fresh media and test compounds were added to the wells and the cells further incubated for 15 hours at 37 degrees Celsius in 5% CO2. Cells were lysed by adding 80 microliters/well of a cell culture lysis reagent (Promega). 50 microliters of each lysate was taken for GFP detection using an excitation wavelength of 486 nm and detection at 527 nm. 100 microliters Luciferase assay reagent (Promega) was then added to every 20 microliters cell lysate for luminometer detection. […] Induction activity for specific representative compounds can be found in Table 4.

[3] = system: klf2 promoter-luciferase construct in A204 cells; assay: klf2 reporter gene induction (p21 versus klf2 selectivity); conditions: SNDX-275 p21/klf2 ratio defined as 1.0; for p21/klf2 (RP3): relative selectivity compared with SNDX-275: 3 micromolar; for p21/klf2 (RP10): relative selectivity compared with SNDX-275: 10 micromolar
Procedure: as §1
The novel compounds of the present invention were tested for their ability to induce klf2 gene expression using a reporter gene assay involving A204 cells transfected with a klf2 promoter-luciferase construct. The klf2 promoter contained the MEF2 binding site for HDAC3/class IIa HDAC complex. Briefly, the day before transfection, A204 cells were seeded at 11,000 cells/well in a 96-well culture plate and incubated at 37 degrees Celsius in 5% CO2 overnight. For transfection, the medium was removed and replaced with 100 microliters/well transfection media previously prepared as follows: 5 microliters serum-free DMEM, 0.15 microliters Fugene 6 reagent, 40 ng klf2-luc, 10 ng GFP were mixed gently and incubated at room temperature for 30 minutes; then 98 microliters DMEM (with 10% FBS, 1% penicillin and streptomycin) was added to the DNA:Fugene 6 reagent complex and mixed gently. After incubating the cells for 24 hours at 37 degrees Celsius in 5% CO2, fresh media and test compounds were added to the wells and the cells further incubated for 15 hours at 37 degrees Celsius in 5% CO2. Finally, 10 ng/ml TNF-α was added and the cells further incubated for 4 hours. Cells were lysed by adding 80 microliters/well of a cell culture lysis reagent (Promega). 50 microliters of each lysate was taken for GFP detection using an excitation wavelength of 486 nm and detection at 527 nm. 100 microliters Luciferase assay reagent (Promega) was then added to every 20 microliters cell lysate for luminometer detection.

Row | SMILES | GI50 [1] [nM] | p21 (RP3): relative induction potency compared with SNDX-275 [2] [%] | p21/klf2 (RP3): relative selectivity compared with SNDX-275 [3] | p21/klf2 (RP10): relative selectivity compared with SNDX-275 [3]
1 | Nc1ccccc1NC(=O)/C=C/c1ccc(C(NCCN2CCOCC2)C(=O)Nc2ccc(C(F)(F)F)c(F)c2)cc1 (centres unmarked) [Example 4-36, (E)-N-(2-Amino-phenyl)-3-{4-[(3-fluoro-4-trifluoromethyl-phenylcarbamoyl)-(2-morpholin-4-yl-ethylamino)-methyl]-phenyl}-acrylamide] | 2000 | 43 | 0.7 | 3.1
2 | CC(C)c1ccc(NC(=O)C(NCCN2CCOCC2)c2ccc(/C=C/C(=O)Nc3ccccc3N)cc2)cc1 (centres unmarked) [Example 4-37, (E)-N-(2-Amino-phenyl)-3-{4-[(4-isopropyl-phenylcarbamoyl)-(2-morpholin-4-yl-ethylamino)-methyl]-phenyl}-acrylamide] | 1000 | 60 | 1.1 | 1.7
3 | Nc1ccccc1NC(=O)/C=C/c1ccc(C(NCCCN2CCOCC2)C(=O)Nc2ccc(C3CC3)cc2)cc1 (centres unmarked) [Example 4-41, (E)-N-(2-Amino-phenyl)-3-{4-[(4-cyclopropyl-phenylcarbamoyl)-(3-morpholin-4-yl-propylamino)-methyl]-phenyl}-acrylamide] | 1400 | 156 | 3.5 | 2.1
4 | Nc1ccccc1NC(=O)/C=C/c1ccc(C(NCCN2CCOCC2)C(=O)Nc2ccc(C(F)(F)F)cn2)cc1 (centres unmarked) [Example 4-43, (E)-N-(2-Amino-phenyl)-3-{4-[(2-morpholin-4-yl-ethylamino)-(5-trifluoromethyl-pyridin-2-ylcarbamoyl)-methyl]-phenyl}-acrylamide] | 2200 | 89 | 0.9 | 2.1
5 | Nc1ccccc1NC(=O)/C=C/c1ccc(C(NCCN2CCOCC2)C(=O)Nc2ccc(C3CC3)cc2)cc1 (centres unmarked) [Example 4-47, (E)-N-(2-Amino-phenyl)-3-{4-[(4-cyclopropyl-phenylcarbamoyl)-(2-morpholin-4-yl-ethylamino)-methyl]-phenyl}-acrylamide] | 900 | 79 | 1.0 | 1.8
6 | Nc1ccccc1NC(=O)/C=C/c1ccc(C(NCCN2CCCCC2)C(=O)Nc2ccc(OC(F)(F)F)cc2)cc1 (centres unmarked) [Example 4-48, (E)-N-(2-Amino-phenyl)-3-{4-[(2-piperidin-1-yl-ethylamino)-(4-trifluoromethoxy-phenylcarbamoyl)-methyl]-phenyl}-acrylamide] | 1400 | 130 | 1.9 | 1.9
7 | CN(C)CCNC(C(=O)Nc1ccc(C(F)(F)F)c(F)c1)c1ccc(/C=C/C(=O)Nc2ccccc2N)cc1 (centres unmarked) [Example 4-49, (E)-N-(2-Amino-phenyl)-3-{4-[(2-dimethylamino-ethylamino)-(3-fluoro-4-trifluoromethyl-phenylcarbamoyl)-methyl]-phenyl}-acrylamide] | 1400 | 128 | 1.5 | 1.5
8 | CC(C)(C)c1ccc(NC(=O)C(NCCO)c2ccc(/C=C/C(=O)Nc3ccccc3N)cc2)cc1 (centres unmarked) [Example 4-68, (E)-N-(2-Amino-phenyl)-3-{4-[(4-tert-butyl-phenylcarbamoyl)-(2-hydroxy-ethylamino)-methyl]-phenyl}-acrylamide] | 3700 | 41 | 0.5 | 1.3
9 | Nc1ccccc1NC(=O)/C=C/c1ccc(C(NCCO)C(=O)Nc2ccc(C(F)(F)F)cc2)cc1 (centres unmarked) [Example 4-69, (E)-N-(2-Amino-phenyl)-3-{4-[(2-hydroxy-ethylamino)-(4-trifluoromethyl-phenylcarbamoyl)-methyl]-phenyl}-acrylamide] | 1700 | 117 | 1.0 | 2.3
10 | Nc1ccccc1NC(=O)/C=C/c1ccc(C(NCCN2CCOCC2)C(=O)Nc2ccc(Br)cc2)cc1 (centres unmarked) [Example 9-1, (E)-N-(2-Amino-phenyl)-3-{4-[(4-bromo-phenylcarbamoyl)-(2-morpholin-4-yl-ethylamino)-methyl]-phenyl}-acrylamide] | 1000 | 144 | 1.0 | 2.2
11 | CN(C)CCNC(C(=O)Nc1ccc(Br)cc1)c1ccc(/C=C/C(=O)Nc2ccccc2N)cc1 (centres unmarked) [Example 9-3, (E)-N-(2-Amino-phenyl)-3-{4-[(4-bromo-phenylcarbamoyl)-(2-dimethylamino-ethylamino)-methyl]-phenyl}-acrylamide] | 300 | 152 | 1.6 | 1.7
12 | CN(C)C(C(=O)Nc1ccc(C(F)(F)F)cc1)c1ccc(/C=C/C(=O)Nc2ccccc2N)cc1 (centres unmarked) [Example 9-6, (E)-N-(2-Amino-phenyl)-3-{4-[dimethylamino-(4-trifluoromethyl-phenylcarbamoyl)-methyl]-phenyl}-acrylamide] | 2700 | 47 | 0.9 | 1.7
13 | Nc1ccccc1NC(=O)/C=C/c1ccc(C(C(=O)Nc2ccc(C(F)(F)F)cc2)N2CCNCC2)cc1 (centres unmarked) [Example 9-7, (E)-N-(2-Amino-phenyl)-3-{4-[piperazin-1-yl-(4-trifluoromethyl-phenylcarbamoyl)-methyl]-phenyl}-acrylamide] | 2500 | 54 | 0.5 | 2.1
14 | Nc1ccccc1NC(=O)/C=C/c1ccc(C(C(=O)Nc2ccc(C(F)(F)F)cc2)N2CCOCC2)cc1 (centres unmarked) [Example 9-10, (E)-N-(2-Amino-phenyl)-3-{4-[morpholin-4-yl-(4-trifluoromethyl-phenylcarbamoyl)-methyl]-phenyl}-acrylamide] | 1100 | 80 | 1.0 | 1.6
